Assay results published in patent US5387599A, “Triazoles, their production and use” (Takeda Chemical Industries, Ltd., priority 1990, dated 1995).
Structures can show the parent of a compound that is named as a salt.

Key:
[1] = system: Trichophyton rubrum IFO 6467; assay: paper disk growth inhibition on agar (antifungal spectrum); type: cell-based; conditions: IFO6467, 48 h, medium B (Sabouraud's agar), 1000 μg/ml, 8 mm disk, 2 days, 28° C., read-out: Diameter of growth inhibition zone
Experimental: (§1) Evaluation for fungicidal acitivity of the compound (I) was carried out by the following method.
(§2) A paper disk (manufactured by TOYO SEISAKUSHO, 8mm in diameter) dipped into a methanol solution containing the compound (I) in an amount of 1000 μg/ml was placed on an agar plate containing various fungi. After the cultivation of said fungi for two days at 28° C., mesurement was made to the diameter of a growth inhibiton zone produced around the paper disk.

[2] = system: Trichophyton methagrophytes IFO 7522; assay: as above; type: cell-based; conditions: IFO7522, 48 h, medium B (Sabouraud's agar), 1000 μg/ml, 8 mm disk, 2 days, 28° C., read-out: Diameter of growth inhibition zone
Experimental: as §1, §2

[3] = system: Microsporum gypseum IFO 6075; assay: as above; type: cell-based; conditions: Nannizzia gypsea, IFO6075, 48 h, medium B (Sabouraud's agar), 1000 μg/ml, 8 mm disk, 2 days, 28° C., read-out: Diameter of growth inhibition zone
Experimental: as §1, §2

Candida albicans = assay: protective effect against experimental infection in mice; conditions: in Mus musculus, 168 h
Experimental: 5-Week old Crj:CDF1 mice were inoculated with the minimum lethal dose of Candida albicans in its vein or abdominal cavity. A drug was administered once immediately after the infection or twice, i.e., immediately after and two hours after the infection. The drug effect was shown with ED50 value calculated by Reed and Muench method from the survival ratio on day 7 after infection. The ED50 value was calculated from the total dose.

Pyricularia oryzae = type: in vivo, Pyricularia oryzae (on rice); conditions: 200 ppm; rice seedling, 6 days after inoculation
[4] = system: Aspergillus niger IFO 4066; assay: paper disk growth inhibition on agar (antifungal spectrum); type: cell-based; conditions: IFO4066, 48 h, medium A (yeast nitrogen base agar, pH 7.0), 1000 μg/ml, 8 mm disk, 2 days, 28° C., read-out: Diameter of growth inhibition zone
Experimental: as §1
as §2, with “disk. The media used for the evaluation are as follows:” for “disk.”
(§3) A: Yeast nitrogen base agar (pH 7.0)

Candida utilis IFO 0619 = assay: as above; type: cell-based; conditions: Williopsis jadinii, IFO0619, 48 h, medium A (yeast nitrogen base agar, pH 7.0), 1000 μg/ml, 8 mm disk, 2 days, 28° C., read-out: Diameter of growth inhibition zone
Experimental: as §1
as §2, with “disk. The media used for the evaluation are as follows:” for “disk.”
as §3

[5] = system: Aspergillus fumigatus IFO 6344; assay: as above; type: cell-based; conditions: IFO6344, 48 h, medium A (yeast nitrogen base agar, pH 7.0), 1000 μg/ml, 8 mm disk, 2 days, 28° C., read-out: Diameter of growth inhibition zone
Experimental: as §1
as §2, with “disk. The media used for the evaluation are as follows:” for “disk.”
as §3

[6] = system: Candida albicans IFO 0583; assay: as above; type: cell-based; conditions: IFO0583, 48 h, medium A (yeast nitrogen base agar, pH 7.0), 1000 μg/ml, 8 mm disk, 2 days, 28° C., read-out: Diameter of growth inhibition zone
Experimental: as §1
as §2, with “disk. The media used for the evaluation are as follows:” for “disk.”
as §3

[7] = system: Cryptococcus neoformans IFO 0410; assay: as above; type: cell-based; conditions: IFO0410, 48 h, medium A (yeast nitrogen base agar, pH 7.0), 1000 μg/ml, 8 mm disk, 2 days, 28° C., read-out: Diameter of growth inhibition zone
Experimental: as §1
as §2, with “disk. The media used for the evaluation are as follows:” for “disk.”
as §3

Erysiphe graminis = assay: preventive effect against powdery mildew of barley (Experimental Method 1); type: in vivo, Erysiphe graminis (on barley); conditions: 200 ppm; barley seedling, 8 days after inoculation
Experimental: Experimental Method 1 Experiment for preventive effect against powdery mildew of barley (Erysiphe graminis) […] The resultant solution was diluted with water to obtain a predetermined concentration of the active ingredient. To this diluted solution was added a sticker Dyne®[manufactured by Takeda Chemical Industries, Ltd., and including polyoxyethylenenonylphenylether (10 wt. %) and potassium ligninsulfonate (10 wt. %)] in a ratio of 0.03 wt. % (end concentration) to prepare a spray. Thus obtained spray was sprayed to a barley seedling (about one week seeding) such that the spray was dripped from the seedling. After air-drying, the spore of susceptible leaf with Erysiphe graminis was forcibly deposited for inoculation. The spore was maintained at an artificial inoculation chamber at a temperature of 20° C. for 8 days after the inoculation. Thereafter, the area rate of lesion was examined to represent the preventive value by the following coefficient. […] Preventive value 2: area rate of lesion 11-20% Preventive value 1: area rate of lesion 21-50% Preventive value 0: area rate of lesion 51% or more

With `CCN(CC)C(=S)S[C@H](C)[C@](O)(Cn1cncn1)c1ccc(F)cc1F` (racemic) [Compound 1, [(2RS,3RS)-3-(2,4-difluorophenyl)-3-hydroxy-4-(1H-1,2,4-triazol-1-yl)-2butyl] N,N-diethyldithiocarbamate] the zone of inhibition at 1000 µg/mL [1] was 35 mm, the zone of inhibition at 1000 µg/mL [2] was 40 mm and the zone of inhibition at 1000 µg/mL [3] was 40 mm. For the same compound, the ED50 (Candida albicans; sc) was 2 mg/kg, the “Preventive Value for Pyricularia oryzae” value (Pyricularia oryzae) was 3 (area rate of lesion 0-14%) and the zone of inhibition at 1000 µg/mL [4] was 28 mm. For the same compound, the zone of inhibition at 1000 µg/mL (Candida utilis IFO 0619) was 32 mm, the zone of inhibition at 1000 µg/mL [5] was 45 mm and the zone of inhibition at 1000 µg/mL [6] was 40 mm. For the same compound, the zone of inhibition at 1000 µg/mL [7] was 35 mm and the “Preventive Value for Erysiphe graminis” value (Erysiphe graminis) was 3 (area rate of lesion 0-10%).
Compound `CCN(CC)C(=S)S[C@H](C)[C@](O)(Cn1cncn1)c1ccc(F)cc1F.Cl` [Compound 2, [(2R,3R)-3-(2,4-difluorophenyl)-3-hydroxy-4-(1H-1,2,4-triazol-1-yl)-2-butyl] N,N-diethyldithiocarbamate hydrochloride] has a zone of inhibition at 1000 µg/mL [1] of 40 mm, a zone of inhibition at 1000 µg/mL [2] of 48 mm and a zone of inhibition at 1000 µg/mL [3] of 48 mm. The ED50 (Candida albicans; po) was 0.5 mg/kg, the “Preventive Value for Pyricularia oryzae” value (Pyricularia oryzae) was 3 (area rate of lesion 0-14%) and the zone of inhibition at 1000 µg/mL [4] was 35 mm. The zone of inhibition at 1000 µg/mL (Candida utilis IFO 0619) was 40 mm, the zone of inhibition at 1000 µg/mL [5] was 50 mm and the zone of inhibition at 1000 µg/mL [6] was 30 mm. For the same compound, the zone of inhibition at 1000 µg/mL [7] was 30 mm and the “Preventive Value for Erysiphe graminis” value (Erysiphe graminis) was 3 (area rate of lesion 0-10%).
`Cc1cccc(N(C)C(=S)S[C@H](C)[C@](O)(Cn2cncn2)c2ccc(F)cc2F)c1` [Compound 9, [(2R,3R)-3-(2,4-difluorophenyl)-3-hydroxy-4-(1H,1,2,4-triazol-1-yl)-2-butyl] N-methyl-N-(3-methylphenyl) dithiocarbamate hydrochloride] showed a zone of inhibition at 1000 µg/mL [1] of 30 mm, a zone of inhibition at 1000 µg/mL [2] of 15 mm and a zone of inhibition at 1000 µg/mL [3] of 20 mm. It also gave an ED50 (Candida albicans; po) of 2 mg/kg, a zone of inhibition at 1000 µg/mL [4] of 13 mm and a zone of inhibition at 1000 µg/mL (Candida utilis IFO 0619) of 20 mm. The zone of inhibition at 1000 µg/mL [5] was 15 mm, the zone of inhibition at 1000 µg/mL [6] was 25 mm and the zone of inhibition at 1000 µg/mL [7] was 20 mm.
